#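 These data come from cells grown in 96-well plates and exposed to compound for 48 hours at five concentrations. The concentration for 50% growth inhibition is given as GI50. The concentration for full growth arrest is given as TGI.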
# Experiments:
# Test in all cases: NCI-60 cell line screen, 48 h
# NCI-H522 lung = system: NCI-H522 lung
# UO-31 renal = system: UO-31 renal
# SK-OV-3 ovarian = system: SK-OV-3 ovarian
# 786-0 renal = system: 786-0 renal
# ACHN renal = system: ACHN renal
# NCI-H23 lung = system: NCI-H23 lung
# SF-295 CNS = system: SF-295 CNS
# SK-MEL-28 melanoma = system: SK-MEL-28 melanoma
# SF-268 CNS = system: SF-268 CNS
# NCI-H460 lung = system: NCI-H460 lung
# UACC-62 melanoma = system: UACC-62 melanoma
# KM12 colon = system: KM12 colon
# IGROV1 ovarian = system: IGROV1 ovarian
# OVCAR-4 ovarian = system: OVCAR-4 ovarian
# NCI/ADR-RES ovarian = system: NCI/ADR-RES ovarian
# SR leukemia = system: SR leukemia
# HCC-2998 colon = system: HCC-2998 colon
# SK-MEL-2 melanoma = system: SK-MEL-2 melanoma
# BT-549 breast = system: BT-549 breast
# OVCAR-5 ovarian = system: OVCAR-5 ovarian
# COLO 205 colon = system: COLO 205 colon
# M14 melanoma = system: M14 melanoma
# MDA-MB-435 = system: MDA-MB-435
# HCT-15 colon = system: HCT-15 colon
# OVCAR-3 ovarian = system: OVCAR-3 ovarian
# TK-10 renal = system: TK-10 renal
# PC-3 prostate = system: PC-3 prostate
# SF-539 CNS = system: SF-539 CNS
# HL-60(TB) leukemia = system: HL-60(TB) leukemia
# RXF 393 renal = system: RXF 393 renal
# MALME-3M melanoma = system: MALME-3M melanoma
# K-562 leukemia = system: K-562 leukemia
# U251 CNS = system: U251 CNS
# LOX IMVI melanoma = system: LOX IMVI melanoma
# OVCAR-8 ovarian = system: OVCAR-8 ovarian
# MCF7 breast = system: MCF7 breast
# UACC-257 melanoma = system: UACC-257 melanoma
# RPMI-8226 leukemia = system: RPMI-8226 leukemia
# DU-145 prostate = system: DU-145 prostate
# CAKI-1 renal = system: CAKI-1 renal
# T-47D breast = system: T-47D breast
# HOP-62 NSCLC = system: HOP-62 NSCLC
# MOLT-4 leukemia = system: MOLT-4 leukemia
# HCT-116 colon = system: HCT-116 colon
# SNB-19 CNS = system: SNB-19 CNS
# EKVX NSCLC = system: EKVX NSCLC
# A549 NSCLC = system: A549 NSCLC
# HT29 colon = system: HT29 colon
# SW-620 colon = system: SW-620 colon
# SK-MEL-5 melanoma = system: SK-MEL-5 melanoma
# MDA-MB-231 breast = system: MDA-MB-231 breast
# HOP-92 NSCLC = system: HOP-92 NSCLC
# SN12C renal = system: SN12C renal
# SNB-75 CNS = system: SNB-75 CNS
# CCRF-CEM leukemia = system: CCRF-CEM leukemia
smiles,measurement,setting,value
c1cc2c(s1)SSSSS2,GI50,NCI-H522 lung,27.8 µM
same,TGI,NCI-H522 lung,81.8 µM
same,GI50,UO-31 renal,17.6 µM
same,TGI,UO-31 renal,33.7 µM
same,GI50,SK-OV-3 ovarian,34.5 µM
same,TGI,SK-OV-3 ovarian,72.7 µM
same,GI50,786-0 renal,14.9 µM
same,TGI,786-0 renal,29.1 µM
same,GI50,ACHN renal,15.5 µM
same,TGI,ACHN renal,31.7 µM
same,GI50,NCI-H23 lung,14.6 µM
same,TGI,NCI-H23 lung,30.7 µM
same,GI50,SF-295 CNS,18.3 µM
same,TGI,SF-295 CNS,36.9 µM
same,GI50,SK-MEL-28 melanoma,23 µM
same,TGI,SK-MEL-28 melanoma,41.9 µM
same,GI50,SF-268 CNS,19.1 µM
same,TGI,SF-268 CNS,38.6 µM
same,GI50,NCI-H460 lung,19.9 µM
same,TGI,NCI-H460 lung,42.2 µM
same,GI50,UACC-62 melanoma,13.8 µM
same,TGI,UACC-62 melanoma,28.1 µM
same,GI50,KM12 colon,19.3 µM
same,TGI,KM12 colon,38.1 µM
same,GI50,IGROV1 ovarian,19 µM
same,TGI,IGROV1 ovarian,43.1 µM
same,GI50,OVCAR-4 ovarian,24.2 µM
same,TGI,OVCAR-4 ovarian,46.9 µM
same,GI50,NCI/ADR-RES ovarian,22.8 µM
same,TGI,NCI/ADR-RES ovarian,46.4 µM
same,GI50,SR leukemia,3.17 µM
same,TGI,SR leukemia,22.8 µM
same,GI50,HCC-2998 colon,24 µM
same,TGI,HCC-2998 colon,39.9 µM
same,GI50,SK-MEL-2 melanoma,29.3 µM
same,TGI,SK-MEL-2 melanoma,> 100 µM
same,GI50,BT-549 breast,33.8 µM
same,TGI,BT-549 breast,85.9 µM
same,GI50,OVCAR-5 ovarian,21.1 µM
same,TGI,OVCAR-5 ovarian,36.6 µM
same,GI50,COLO 205 colon,17.6 µM
same,TGI,COLO 205 colon,46.6 µM
same,GI50,M14 melanoma,11.2 µM
same,TGI,M14 melanoma,29.4 µM
same,GI50,MDA-MB-435,18.9 µM
same,TGI,MDA-MB-435,35.8 µM
same,GI50,HCT-15 colon,15.8 µM
same,TGI,HCT-15 colon,85.9 µM
same,GI50,OVCAR-3 ovarian,18 µM
same,TGI,OVCAR-3 ovarian,34.5 µM
same,GI50,TK-10 renal,16.7 µM
same,TGI,TK-10 renal,33.5 µM
same,GI50,PC-3 prostate,16.5 µM
same,TGI,PC-3 prostate,39.6 µM
same,GI50,SF-539 CNS,21.7 µM
same,TGI,SF-539 CNS,39.6 µM
same,GI50,HL-60(TB) leukemia,11.8 µM
same,TGI,HL-60(TB) leukemia,> 100 µM
same,GI50,RXF 393 renal,18.4 µM
same,TGI,RXF 393 renal,41.5 µM
same,GI50,MALME-3M melanoma,17.1 µM
same,TGI,MALME-3M melanoma,40.2 µM
same,GI50,K-562 leukemia,16.1 µM
same,TGI,K-562 leukemia,> 100 µM
same,GI50,U251 CNS,17.6 µM
same,TGI,U251 CNS,39.6 µM
same,GI50,LOX IMVI melanoma,11.9 µM
same,TGI,LOX IMVI melanoma,40.3 µM
same,GI50,OVCAR-8 ovarian,36.3 µM
same,TGI,OVCAR-8 ovarian,> 100 µM
same,GI50,MCF7 breast,16.4 µM
same,TGI,MCF7 breast,35 µM
same,GI50,UACC-257 melanoma,35.2 µM
same,TGI,UACC-257 melanoma,> 100 µM
same,GI50,RPMI-8226 leukemia,7.06 µM
same,TGI,RPMI-8226 leukemia,29.4 µM
same,GI50,DU-145 prostate,17.1 µM
same,TGI,DU-145 prostate,34.1 µM
same,GI50,CAKI-1 renal,17.8 µM
same,TGI,CAKI-1 renal,36.6 µM
same,GI50,T-47D breast,13 µM
same,TGI,T-47D breast,32.4 µM
same,GI50,HOP-62 NSCLC,28.2 µM
same,TGI,HOP-62 NSCLC,55.3 µM
same,GI50,MOLT-4 leukemia,18.8 µM
same,TGI,MOLT-4 leukemia,> 100 µM
same,GI50,HCT-116 colon,9.06 µM
same,TGI,HCT-116 colon,21.2 µM
same,GI50,SNB-19 CNS,22.9 µM
same,TGI,SNB-19 CNS,47 µM
same,GI50,EKVX NSCLC,34.6 µM
same,TGI,EKVX NSCLC,68.2 µM
same,GI50,A549 NSCLC,31.8 µM
same,TGI,A549 NSCLC,> 100 µM
same,GI50,HT29 colon,23.3 µM
same,TGI,HT29 colon,41.4 µM
[N-]=[N+]=NCCCn1c2c(c3cc4c(cc3c1=O)OCO4)C(=O)c1ccccc1-2,GI50,NCI-H522 lung,75 µM
same,TGI,NCI-H522 lung,> 100 µM
same,GI50,UO-31 renal,> 100 µM
same,TGI,UO-31 renal,> 100 µM
same,GI50,SK-OV-3 ovarian,> 100 µM
same,TGI,SK-OV-3 ovarian,> 100 µM
same,GI50,786-0 renal,67.7 µM
same,TGI,786-0 renal,> 100 µM
same,GI50,ACHN renal,13.1 µM
same,TGI,ACHN renal,86 µM
same,GI50,SW-620 colon,> 100 µM
same,TGI,SW-620 colon,> 100 µM
same,GI50,NCI-H23 lung,42.8 µM
same,TGI,NCI-H23 lung,> 100 µM
same,GI50,SK-MEL-5 melanoma,3.52 µM
same,TGI,SK-MEL-5 melanoma,31.3 µM
same,GI50,SF-295 CNS,32.4 µM
same,TGI,SF-295 CNS,> 100 µM
same,GI50,MDA-MB-231 breast,> 100 µM
same,TGI,MDA-MB-231 breast,> 100 µM
same,GI50,SK-MEL-28 melanoma,> 100 µM
same,TGI,SK-MEL-28 melanoma,> 100 µM
same,GI50,SF-268 CNS,> 100 µM
same,TGI,SF-268 CNS,> 100 µM
same,GI50,NCI-H460 lung,62.8 µM
same,TGI,NCI-H460 lung,> 100 µM
same,GI50,UACC-62 melanoma,87.3 µM
same,TGI,UACC-62 melanoma,> 100 µM
same,GI50,KM12 colon,> 100 µM
same,TGI,KM12 colon,> 100 µM
same,GI50,OVCAR-4 ovarian,> 100 µM
same,TGI,OVCAR-4 ovarian,> 100 µM
same,GI50,NCI/ADR-RES ovarian,> 100 µM
same,TGI,NCI/ADR-RES ovarian,> 100 µM
same,GI50,HCC-2998 colon,> 100 µM
same,TGI,HCC-2998 colon,> 100 µM
same,GI50,SK-MEL-2 melanoma,91.1 µM
same,TGI,SK-MEL-2 melanoma,> 100 µM
same,GI50,BT-549 breast,> 100 µM
same,TGI,BT-549 breast,> 100 µM
same,GI50,M14 melanoma,43 µM
same,TGI,M14 melanoma,> 100 µM
same,GI50,HOP-92 NSCLC,64.2 µM
same,TGI,HOP-92 NSCLC,> 100 µM
same,GI50,SN12C renal,> 100 µM
same,TGI,SN12C renal,> 100 µM
same,GI50,MDA-MB-435,10.3 µM
same,TGI,MDA-MB-435,> 100 µM
same,GI50,HCT-15 colon,> 100 µM
same,TGI,HCT-15 colon,> 100 µM
same,GI50,OVCAR-3 ovarian,71.9 µM
same,TGI,OVCAR-3 ovarian,> 100 µM
same,GI50,TK-10 renal,42.6 µM
same,TGI,TK-10 renal,> 100 µM
same,GI50,PC-3 prostate,> 100 µM
same,TGI,PC-3 prostate,> 100 µM
same,GI50,SF-539 CNS,> 100 µM
same,TGI,SF-539 CNS,> 100 µM
same,GI50,K-562 leukemia,28.7 µM
same,TGI,K-562 leukemia,> 100 µM
same,GI50,SNB-75 CNS,72.8 µM
same,TGI,SNB-75 CNS,> 100 µM
same,GI50,U251 CNS,> 100 µM
same,TGI,U251 CNS,> 100 µM
same,GI50,LOX IMVI melanoma,13.5 µM
same,TGI,LOX IMVI melanoma,> 100 µM
same,GI50,OVCAR-8 ovarian,21.6 µM
same,TGI,OVCAR-8 ovarian,87.3 µM
same,GI50,MCF7 breast,7.5 µM
same,TGI,MCF7 breast,> 100 µM
same,GI50,RPMI-8226 leukemia,> 100 µM
same,TGI,RPMI-8226 leukemia,> 100 µM
same,GI50,DU-145 prostate,17.5 µM
same,TGI,DU-145 prostate,> 100 µM
same,GI50,CAKI-1 renal,89.1 µM
same,TGI,CAKI-1 renal,> 100 µM
same,GI50,T-47D breast,> 100 µM
same,TGI,T-47D breast,> 100 µM
same,GI50,CCRF-CEM leukemia,39.2 µM
same,TGI,CCRF-CEM leukemia,> 100 µM
same,GI50,HOP-62 NSCLC,39 µM
same,TGI,HOP-62 NSCLC,> 100 µM
same,GI50,MOLT-4 leukemia,0.0905 µM
same,TGI,MOLT-4 leukemia,13.7 µM
same,GI50,HCT-116 colon,40.1 µM
same,TGI,HCT-116 colon,> 100 µM
same,GI50,SNB-19 CNS,> 100 µM
same,TGI,SNB-19 CNS,> 100 µM
same,GI50,EKVX NSCLC,> 100 µM
same,TGI,EKVX NSCLC,> 100 µM
same,GI50,A549 NSCLC,93.5 µM
same,TGI,A549 NSCLC,> 100 µM
same,GI50,HT29 colon,> 100 µM
same,TGI,HT29 colon,> 100 µM

# Reference: PubChem BioAssay (NCI)
